Laboratory results as given in US20220298493A1, “INACTIVATION PROCESS FOR VIRUSES” (priority 2019, published 2022).
Where two headings read alike, the source gives them in different places.

Tested on: Chikungunya virus
Conditions: 200 ppm formaldehyde, 22° C.

C=O [formaldehyde]
reduction of virus titer (TCID50) (after ~9 h): 99%
reduction of virus titer (TCID50) (after ~15 h): 99.9%
